Source: patent US11046680B1, “Heteroaryl-substituted triazoles as APJ receptor agonists” (priority 2016, dated 2021)

Molecular target: human APJ receptor (Homo sapiens (Human), UniProt P35414)
Test: biochemical
Format: biochemical
Conditions: [35S]GTPγS binding, CHO membranes expressing human APJ receptor; read-out: Activity hAPJ SPA EC50 IP
How it was run: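 GTPγS binding on membranes from CHO cells stably expressing FLAG-tagged human APJ, with optimized GDP, MgCl2 and NaCl; incubated 90 min at RT before imaging read-out.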

Chain of human APJ receptor (P35414 whole entry): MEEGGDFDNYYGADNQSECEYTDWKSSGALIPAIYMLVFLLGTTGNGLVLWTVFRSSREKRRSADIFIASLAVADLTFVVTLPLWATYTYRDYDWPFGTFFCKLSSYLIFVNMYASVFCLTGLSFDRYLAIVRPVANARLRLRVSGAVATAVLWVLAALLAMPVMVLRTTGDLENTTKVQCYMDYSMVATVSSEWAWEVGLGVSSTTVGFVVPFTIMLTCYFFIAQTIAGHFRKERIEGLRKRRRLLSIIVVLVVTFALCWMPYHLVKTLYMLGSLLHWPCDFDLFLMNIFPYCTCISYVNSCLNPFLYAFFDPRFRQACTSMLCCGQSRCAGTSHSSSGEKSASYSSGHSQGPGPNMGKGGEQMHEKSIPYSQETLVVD

In order of falling EC50:
1. COc1cccc(OC)c1-n1c(NS(=O)(=O)[C@@H](C)[C@H](OC)c2ncc(C)cn2)nnc1-c1c(C)nc2ccccn12 [Example 410.0, (1R,25)-N-(4-(2,6-dimethoxyphenyl)-5-(2-methylimidazo[1,2-a]pyridin-3-yl)-4H-1,2,4-triazol-3-yl)-1-methoxy-1-(5-methylpyrimidin-2-yl)propane-2-sulfonamide]  940 nM
2. Cc1cnc([C@@H](C)[C@H](C)S(=O)(=O)Nc2nnc(-c3noc4ccccc34)n2C2CCOCC2)nc1 [Example 84.0, (2S,3R)-N-(5-(benzo[d]isoxazol-3-yl)-4-(tetrahydro-2H-pyran-4-yl)-4H-1,2,4-triazol-3-yl)-3-(5-methylpyrimidin-2-yl)butane-2-sulfonamide]  260 nM
3. COc1ccccc1-n1c(NS(=O)(=O)CCc2ccc(Cl)cc2)nnc1-c1ccc(F)s1 [Example 239.0, 2-(4-chlorophenyl)-N-(5-(5-fluorothiophen-2-yl)-4-(2-methoxyphenyl)-4H-1,2,4-triazol-3-yl)ethanesulfonamide]  210 nM
4. COc1ccc(Cl)cc1-n1c(NS(=O)(=O)CCc2ccc(F)cc2)nnc1-c1cccs1 [Example 360.0, N-(4-(5-Chloro-2-methoxyphenyl)-5-(thiophen-2-yl)-4H-1,2,4-triazol-3-yl)-2-(4-fluorophenyl)ethanesulfonamide]  194 nM
5. COc1ccc(C#N)cc1-n1c(NS(=O)(=O)CCc2ccc(Cl)cc2)nnc1-c1cccs1 [Example 247.0, 2-(4-chlorophenyl)-N-(4-(5-cyano-2-methoxyphenyl)-5-(thiophen-2-yl)-4H-1,2,4-triazol-3-yl)ethanesulfonamide]  166 nM
6. CO[C@H](c1ncc(Cl)cn1)[C@H](C)S(=O)(=O)Nc1nnc(-c2nn(C)c3c2CCCC3)n1C(C)C [Example 512.0, (1R,2S)-1-(5-chloropyrimidin-2-yl)-N-(4-isopropyl-5-(1-methyl-4,5,6,7-tetrahydro-1H-indazol-3-yl)-4H-1,2,4-triazol-3-yl)-1-methoxypropane-2-sulfonamide]  130 nM
7. COc1cccc(OC)c1-n1c(NS(=O)(=O)[C@H](C)Cc2ncc(F)cn2)nnc1-c1ccncn1 (single isomer, unassigned) [Example 38.0, (R)-N-(4-(2,6-dimethoxyphenyl)-5-(pyrimidin-4-yl)-4H-1,2,4-triazol-3-yl)-1-(5-fluoropyrimidin-2-yl)propane-2-sulfonamide or (R)-N-(4-(2,6-dimethoxyphenyl)-5-(pyrimidin-4-yl)-4H-1,2,4-triazol-3-yl)-1-(5-fluoropyrimidin-2-yl)propane-2-sulfonamide]  84 nM
8. COc1cccc(OC)c1-n1c(NS(=O)(=O)[C@H](C)[C@H](O)c2ncc(C)cn2)nnc1-c1nc(C)cs1 (single isomer, unassigned) [Example 316.0, (1R,2R)-N-(4-(2,6-dimethoxyphenyl)-5-(4-methylthiazol-2-yl)-4H-1,2,4-triazol-3-yl)-1-hydroxy-1-(5-methylpyrimidin-2-yl)propane-2-sulfonamide or (1S,2S)-N-(4-(2,6-dimethoxyphenyl)-5-(4-methylthiazol-2-yl)-4H-1,2,4-triazol-3-yl)-1-hydroxy-1-(5-methylpyrimidin-2-yl)propane-2-sulfonamide]  81 nM
9. COc1cccc(OC)c1-n1c(NS(=O)(=O)[C@H](C)Cc2ncc(F)cn2)nnc1-c1conc1C (single isomer, unassigned) [Example 65.0, (R)-N-(4-(2,6-dimethoxyphenyl)-5-(3-methylisoxazol-4-yl)-4H-1,2,4-triazol-3-yl)-1-(5-fluoropyrimidin-2-yl)propane-2-sulfonamide or (S)-N-(4-(2,6-dimethoxyphenyl)-5-(3-methylisoxazol-4-yl)-4H-1,2,4-triazol-3-yl)-1-(5-fluoropyrimidin-2-yl)propane-2-sulfonamide]  76 nM
10. COc1cccc(OC)c1-n1c(NS(=O)(=O)[C@@H](C)[C@H](OC)c2ncc(C)cn2)nnc1-c1cc(C2CC2)on1 [Example 424.0, (1R,25)-N-(5-(5-cyclopropylisoxazol-3-yl)-4-(2,6-dimethoxyphenyl)-4H-1,2,4-triazol-3-yl)-1-methoxy-1-(5-methylpyrimidin-2-yl)propane-2-sulfonamide]  21 nM
11. O=S(=O)(CCc1ccc(Cl)cc1)Nc1nnc(-c2ccc(F)s2)n1-c1ccccc1OC(F)F [Example 244.0, 2-(4-chlorophenyl)-N-(4-(2-(difluoromethoxy)phenyl)-5-(5-fluoro-2-thiophenyl)-4H-1,2,4-triazol-3-yl)ethanesulfonamide]  21 nM
12. COc1cccc(OC)c1-n1c(NS(=O)(=O)CCc2ncc(C)cn2)nnc1-c1nc(C)cs1 [Example 10.0, N-(4-(2,6-dimethoxyphenyl)-5-(4-methyl-1,3-thiazol-2-yl)-4H-1,2,4-triazol-3-yl)-2-(5-methyl-2-pyrimidinyl)ethanesulfonamide]  8.4 nM
13. COc1cccc(OC)c1-n1c(NS(=O)(=O)[C@H](C)Cc2ncc(F)cn2)nnc1-c1nc(C)cs1 [Example 100.0]  3 nM
14. COc1cccc(OC)c1-n1c(NS(=O)(=O)[C@@H](C)[C@H](C)c2ncc(F)cn2)nnc1-c1cc2n(n1)CCC2 [Example 208.0, (2S,3R)-N-(5-(5,6-dihydro-4H-pyrrolo[1,2-b]pyrazol-2-yl)-4-(2,6-dimethoxyphenyl)-4H-1,2,4-triazol-3-yl)-3-(5-fluoro-2-pyrimidinyl)-2-butanesulfonamide]  2.5 nM
15. COc1ncnc(OC)c1-n1c(NS(=O)(=O)[C@@H](C)[C@H](OC)c2ccc(Cl)cn2)nnc1-c1ccn(C)n1 (single isomer, unassigned) [Example 288.0]  1.3 nM
16. COc1ncnc(OC)c1-n1c(NS(=O)(=O)[C@@H](C)[C@H](OC)c2ncc(C)cn2)nnc1-c1nc(C2CC2)cs1 [Example 4.0, (1R,2S)-N-(5-(4-cyclopropylthiazol-2-yl)-4-(4,6-dimethoxypyrimidin-5-yl)-4H-1,2,4-triazol-3-yl)-1-methoxy-1-(5-methylpyrimidin-2-yl)propane-2-sulfonamide]  0.92 nM
17. COc1cccc(OC)c1-n1c(NS(=O)(=O)[C@H](C)Cc2ncc(F)cn2)nnc1-c1nc(C2CC2)cs1 (single isomer, unassigned) [Example 159.0, (R)-N-(5-(4-cyclopropylthiazol-2-yl)-4-(2,6-dimethoxyphenyl)-4H-1,2,4-triazol-3-yl)-1-(5-fluoropyrimidin-2-yl)propane-2-sulfonamide or (S)-N-(5-(4-cyclopropylthiazol-2-yl)-4-(2,6-dimethoxyphenyl)-4H-1,2,4-triazol-3-yl)-1-(5-fluoropyrimidin-2-yl)propane-2-sulfonamide]  0.61 nM
18. COc1cccc(OC)c1-n1c(NS(=O)(=O)[C@@H](C)[C@H](C)c2ncc(C#N)cn2)nnc1-c1ccn(C(F)F)n1 [Example 224.0, (2S,3R)-3-(5-cyano-2-pyrimidinyl)-N-(5-(1-(difluoromethyl)-1H-pyrazol-3-yl)-4-(2,6-dimethoxyphenyl)-4H-1,2,4-triazol-3-yl)-2-butanesulfonamide]  0.41 nM
19. COc1ccc([C@@H](C)[C@H](C)S(=O)(=O)Nc2nnc(-c3ccn(C)n3)n2-c2c(OC)cccc2OC)nc1 [Example 459.0, (2S,3R)-N-(4-(2,6-dimethoxyphenyl)-5-(1-methyl-1H-pyrazol-3-yl)-4H-1,2,4-triazol-3-yl)-3-(5-methoxy-2-pyridinyl)-2-butanesulfonamide]  0.33 nM
